Laboratory results taken from article doi:10.1101/2024.03.04.583282v1 (biorxiv, 2024).

Legend:
[1] = target: NATA2Δ (Arabidopsis thaliana, UniProt Q9ZV06); assay: isothermal titration calorimetry; format: binding
[2] = target: NATA1Δ (Arabidopsis thaliana, UniProt Q9ZV05); assay: isothermal titration calorimetry; format: binding
Sequence of NATA1Δ (Q9ZV05 19-228, stated change not applied): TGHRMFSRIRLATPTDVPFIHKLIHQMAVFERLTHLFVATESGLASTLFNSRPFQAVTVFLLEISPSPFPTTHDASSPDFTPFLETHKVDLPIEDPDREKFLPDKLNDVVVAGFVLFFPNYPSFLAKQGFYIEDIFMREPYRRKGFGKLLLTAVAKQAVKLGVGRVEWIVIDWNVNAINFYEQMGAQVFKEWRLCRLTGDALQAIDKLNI

Sequence of NATA2Δ (Q9ZV06 30-236, stated change not applied): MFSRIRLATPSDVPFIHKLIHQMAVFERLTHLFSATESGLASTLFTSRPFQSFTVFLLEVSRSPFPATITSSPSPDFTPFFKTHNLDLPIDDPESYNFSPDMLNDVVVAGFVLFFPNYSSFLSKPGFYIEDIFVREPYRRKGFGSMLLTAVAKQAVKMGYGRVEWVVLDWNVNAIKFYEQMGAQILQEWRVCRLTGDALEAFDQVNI

Kd [1]: ~10 µM
Kd [2]: ~10 µM
SMILES: CC(=O)SCCNC(=O)CCNC(=O)[C@H](O)C(C)(C)COP(=O)(O)OP(=O)(O)OC[C@H]1O[C@@H](n2cnc3c(N)ncnc32)[C@H](O)[C@@H]1OP(=O)(O)O [acCoA]
